Data from PubChem BioAssay (NCI).
Values joined by “and” are separate entries in the source; they are usually repeats but may differ in a detail not shown here. Identical values can stand only once.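 Cells were grown in 96-well plates and exposed to each compound for 48 hours at five concentrations; endpoints were interpolated linearly between bracketing concentrations, or set to the highest concentration if not reached. Here, GI50 denotes the concentration required for 50% inhibition of growth. At the TGI there is no net growth.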

Assays:
Test in all cases: NCI tumour cell line growth inhibition, 48 h
A549 NSCLC = test system: A549 NSCLC
SF-268 CNS = test system: SF-268 CNS
HCT-15 colon = test system: HCT-15 colon
OVCAR-8 ovarian = test system: OVCAR-8 ovarian
HOP-62 NSCLC = test system: HOP-62 NSCLC
SK-OV-3 ovarian = test system: SK-OV-3 ovarian
HS 578T breast = test system: HS 578T breast
SN12C renal = test system: SN12C renal
RPMI-8226 leukemia = test system: RPMI-8226 leukemia
UACC-257 melanoma = test system: UACC-257 melanoma

SMILES	GI50 (A549 NSCLC) [µM]	TGI (A549 NSCLC) [µM]	GI50 (SF-268 CNS) [µM]	TGI (SF-268 CNS)	GI50 (HCT-15 colon) [µM]	TGI (HCT-15 colon) [µM]	GI50 (OVCAR-8 ovarian)	TGI (OVCAR-8 ovarian)	GI50 (HOP-62 NSCLC)	TGI (HOP-62 NSCLC)	GI50 (SK-OV-3 ovarian)	TGI (SK-OV-3 ovarian) [µM]	GI50 (HS 578T breast) [µM]	TGI (HS 578T breast) [µM]	GI50 (SN12C renal) [µM]	TGI (SN12C renal)	GI50 (RPMI-8226 leukemia) [µM]	TGI (RPMI-8226 leukemia)	TGI (UACC-257 melanoma)	GI50 (UACC-257 melanoma) [µM]
O=C(CCl)Nc1ccccc1SCc1cc(Cl)cc2c1OCOC2	20.2	45.1	7.14	23.5 µM	6.4	21.6	13 µM	30.2 µM	19.8 µM	41.5 µM	12.2 µM	33.5	6.25	38.9	6.69	21 µM	6.96	40.6 µM		
CC(=O)CC(=O)CCCC(=O)Nc1ccc(Cl)cc1Cl		> 100		> 100 µM		> 100		> 100 µM		> 100 µM		> 100				> 100 µM		> 100 µM	> 100 µM	
Cc1ccc(C)c(NC(=O)CC2C(=O)Nc3ccccc3S2(=O)=O)c1 (centres undefined)		> 100		> 100 µM		> 100		> 100 µM								> 100 µM		> 100 µM	> 100 µM	
O=C1C(c2ccc(Cl)cc2)=[N+]([O-])c2ccccc21		37.7		28.8 µM		41.3		25 µM		78.5 µM		> 100				32.4 µM		> 100 µM	30.3 µM	
O=[N+]([O-])c1ccc(OCCNc2cccc3ccccc23)cc1		> 100		> 100 µM		> 100		> 100 µM		> 100 µM		> 100				> 100 µM		> 100 µM	> 100 µM	
C=CC[P@@]1(=O)O[C@H](c2ccccc2)C(C)N1C(C)C (some centres undefined)		> 100		> 100 µM		> 100		> 100 µM				> 100				> 100 µM		> 100 µM		
COC(=O)[C@H](C)[C@H]1CC[C@@](C)([C@H]2CC3C(C)(C)[C@H]4CCC(C)=C[C@H]4C[C@@]3(C)O2)OO1 (some centres undefined)		23.2		25.9 µM		24.2		26.2 µM		37.1 µM		56.6				24 µM		18.4 µM	27.5 µM	
CC(C)SC1SCC2C(=O)N(C)C3(CC3C)C(=O)OCC(NC(=O)c3nc4ccccc4cc3O)C(=O)NC(C)C(=O)N(C)C1C(=O)N(C)C1(CC1C)C(=O)OCC(NC(=O)c1nc3ccccc3cc1O)C(=O)NC(C)C(=O)N2C (centres undefined)		17		0.00129 µM								4.92						< 0.0001 µM	< 0.0001 µM	
CS(=O)(=O)c1ccc(Oc2nccc(-c3c(-c4ccc(F)cc4)ncn3C3CCNCC3)n2)cc1	> 25	> 25	> 25	> 25 µM	> 25	> 25	> 25 µM	> 25 µM	> 25 µM	> 25 µM	> 25 µM	> 25	> 25	> 25	> 25	> 25 µM	> 25	> 25 µM		
CC1=C2C(=CC(C)(CO)C2O)C(=O)C(C)(O)C12CC2 (centres undefined)		0.0902		0.0159 µM		0.0462		0.0127 µM		0.0147 µM		0.0424				0.118 µM			0.00867 µM	
O=C(Oc1cccc(Nc2ncnc3ccccc23)c1)c1ccccc1Cl	25.9	> 100	20.8	67 µM	18.9	46.6	20.2 µM	59.1 µM	25.6 µM	83.9 µM	66.8 µM	> 100	19.1	48.1	15.5	49.6 µM			57.1 µM	26.6
CC1(c2ccccc2)CC12C(=O)NC(=O)NC2=O (centres undefined)		> 100		> 100 µM		> 100		> 100 µM		> 100 µM		> 100				> 100 µM		> 100 µM	> 100 µM	
COc1cccc(/C=C\c2cc(OC)c(OC)c(OC)c2)c1		> 100		> 100 µM		> 100		> 100 µM		> 100 µM		> 100				> 100 µM		42.3 µM	47.3 µM	
Cc1c2cc[n+](C)cc2c(C)c2c1[nH]c1ccc(OC(C)C)cc12		> 100		1.88 µM and 2.82 µM		> 100	0.649 µM and 1.61 µM	26 µM and 18.9 µM	1.23 µM and 3.13 µM	19.9 µM and 27.3 µM	1.98 µM and 4.47 µM	> 85.5				7.69 µM and 9.59 µM		36.9 µM and > 60.5 µM	8.06 µM and 11.7 µM	
Cc1ccc(C2=[N+]([O-])c3ccccc3C2=O)cc1		> 90.7		> 75.1 µM		42		36 µM		> 100 µM		> 100				37.8 µM		> 72 µM	33 µM	
N#C[C@]12CC3(CC[C@H]1CC1(C2)OCCO1)OCCO3		> 100		> 100 µM		> 100		> 100 µM		> 100 µM		> 100				> 100 µM		> 100 µM	> 100 µM	
N.N.NCCCCN.O=C([O-])CC(=O)[O-].O=C([O-])CC(=O)[O-].[Pt+4].[Pt+4]	> 100	> 100	> 100	> 100 µM	> 100	> 100	> 100 µM	> 100 µM	> 100 µM	> 100 µM	> 100 µM	> 100			58.5	> 100 µM	> 100	> 100 µM	> 100 µM	> 100
O=C(O)C(Cc1ccccc1-c1ccccc1)C(=O)O		> 100		> 100 µM		> 100		> 100 µM						> 100		> 100 µM		> 100 µM	> 100 µM	
COC(=O)c1ccc(-c2nc3cc(F)c(F)cc3nc2C#N)cc1	10.8	25.6	1.5	4.64 µM	1.59	6.47	4.65 µM	13 µM	9.9 µM	18 µM	9.77 µM	17.2	1.57	4.79	1.66	4.9 µM			18.8 µM	10.2
